Assay results reported in patent publication US7317006B2, “Thieno[2,3-d]pyrimidines with combined LH and FSH agonistic activity” (N.V. Organon, priority 2001, dated 2008).

Legend:
human LH receptor = target: T1, human LH receptor (Homo sapiens, UniProt P22888); experiment: CHO-LH in vitro bioactivity (CRE-luciferase reporter); format: cell-based; details: CHO cells stably transfected with the human LH receptor, read-out: EC50 CHO LHR
T1 construct: expressed in transfected cells; host or cells: CHO cells, cotransfected with CRE/promotor-luciferase reporter
Method: (§1) It has been shown that compounds of the above mentioned formula I show agonistic LH and FSH activity. […] Typically the FSH activity ranges from an activity of about 1% of the LH agonist stimulation to about 10% of the LH agonist stimulation.
(§2) LH agonistic activity of compounds were tested in Chinese Hamster Ovary (CHO) cells stably transfected with the human receptor and cotransfected with a cAMP responsive element (CRE)/promotor directing the expression of a firefly luciferase reporter gene. Binding of ligand to the Gs-coupled LH receptor will result in an increase of cAMP, which in turn will induce an increased transactivation of the luciferase reporter construct. The luciferase signal was quantified using a luminescence counter. For test compounds, EC50 values (concentration of test compound causing half-maximal (50%) stimulation) were calculated. For that purpose the software program GraphPad PRISM, version 3.0 (GraphPad software Inc., San Diego) was used.

immature female mice = experiment: In vivo bioactivity: ovulation induction in immature mice; details: immature female mice primed with urinary FSH (Humegon 12.5 IU/animal), ova in the oviduct counted 24 hours after treatment
Method: To measure LH in vivo activity of compounds, ovulation induction in immature mice can be studied. In this assay immature female mice are primed with urinary FSH and approximately 48 hours later treated with a LH agonistic compound. The animals are killed after LH agonist treatment and the number of ova in the oviduct is microscopically assessed.
To measure in vivo activity of LH/FSH receptor agonistic compounds ovulation induction in immature mice was studied. In this assay immature female mice were primed with urinary FSH (Humegon 12.5 IU/animal). Approximately 48 hours later the animals were treated with a LH/FSH agonistic compound at a dose-level of 50 mg/kg. The animals were killed 24 hours after LH/FSH agonist treatment and the number of ova in the oviduct was microscopically assessed.

human FSH receptor = target: T2, human FSH receptor (Homo sapiens, UniProt P23945); experiment: CHO-FSH in vitro bioactivity (CRE-luciferase reporter); format: cell-based; details: CHO cells transfected with the human FSH receptor and luciferase reporter gene; read-out: EC50 CHO FSHR
T2 construct: expressed in transfected cells; host or cells: CHO cells, transfected with luciferase reporter gene
T2 sequence (P23945 18-695): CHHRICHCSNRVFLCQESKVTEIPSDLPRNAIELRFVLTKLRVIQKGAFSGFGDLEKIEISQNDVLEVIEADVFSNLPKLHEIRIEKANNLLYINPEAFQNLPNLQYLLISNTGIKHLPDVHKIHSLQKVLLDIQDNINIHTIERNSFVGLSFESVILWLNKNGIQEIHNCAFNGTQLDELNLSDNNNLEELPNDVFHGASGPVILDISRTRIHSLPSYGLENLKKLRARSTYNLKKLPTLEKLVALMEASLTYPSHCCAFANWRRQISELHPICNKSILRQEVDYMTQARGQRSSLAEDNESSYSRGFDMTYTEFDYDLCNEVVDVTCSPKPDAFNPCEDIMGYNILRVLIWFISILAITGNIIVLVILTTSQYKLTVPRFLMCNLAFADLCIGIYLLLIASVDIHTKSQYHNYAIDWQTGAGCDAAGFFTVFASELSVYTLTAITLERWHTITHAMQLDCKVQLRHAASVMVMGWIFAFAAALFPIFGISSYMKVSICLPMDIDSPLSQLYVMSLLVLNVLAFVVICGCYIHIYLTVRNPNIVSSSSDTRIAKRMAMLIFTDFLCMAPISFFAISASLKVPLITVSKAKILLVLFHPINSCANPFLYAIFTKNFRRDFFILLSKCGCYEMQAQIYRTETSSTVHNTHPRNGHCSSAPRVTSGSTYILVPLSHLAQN
Method: as §1, §2
In a similar way FSH agonistic activity of compounds was tested in CHO cells transfected with the luciferase reporter gene and the human FSH receptor.

T1 sequence (P22888 27-699): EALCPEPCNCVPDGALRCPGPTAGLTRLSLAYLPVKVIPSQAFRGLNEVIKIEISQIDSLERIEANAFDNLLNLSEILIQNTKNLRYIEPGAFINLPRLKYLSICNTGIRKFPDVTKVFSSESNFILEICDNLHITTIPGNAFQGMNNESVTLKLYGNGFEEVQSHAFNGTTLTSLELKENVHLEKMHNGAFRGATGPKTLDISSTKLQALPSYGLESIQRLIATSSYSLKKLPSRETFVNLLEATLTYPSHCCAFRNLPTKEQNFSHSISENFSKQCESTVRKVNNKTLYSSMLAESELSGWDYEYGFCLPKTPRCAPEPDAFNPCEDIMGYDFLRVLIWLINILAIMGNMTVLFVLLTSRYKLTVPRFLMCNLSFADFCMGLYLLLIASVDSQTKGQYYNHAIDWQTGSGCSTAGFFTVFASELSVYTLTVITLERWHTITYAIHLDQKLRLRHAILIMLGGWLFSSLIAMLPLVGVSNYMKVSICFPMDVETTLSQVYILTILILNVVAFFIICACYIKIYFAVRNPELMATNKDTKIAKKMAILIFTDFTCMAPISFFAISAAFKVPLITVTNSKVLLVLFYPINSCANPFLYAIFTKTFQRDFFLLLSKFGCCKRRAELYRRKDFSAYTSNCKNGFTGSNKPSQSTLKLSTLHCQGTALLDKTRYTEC

Row | SMILES | EC50 (human LH receptor) | mean no. of ova (50 mg/kg p.o.) (immature female mice) | EC50 (human FSH receptor)
1 | CSc1nc(-c2cccc(NC(=O)CN3CCC3)c2)c2c(N)c(C(=O)NC(C)(C)C)sc2n1 [Example 1, tert-Butyl 5-amino-2-methylthio-4-(3-(2-(azetidin-1-yl)-acetamido)-phenyl)-thieno[2,3-d]pyrimidine-6-carboxamide] | 3.86 nM | 1.6 | 462 nM
2 | CSc1nc(-c2cccc(NC(=O)CN3CCOCC3)c2)c2c(N)c(C(=O)NC(C)(C)C)sc2n1 [Example 2, tert-Butyl 5-amino-2-methylthio-4-(3-(2-(morpholin-4-yl)-acetamido)-phenyl)-thieno[2,3-d]pyrimidine-6-carboxamide] | 2.24 nM | 9.3 | 42 nM
3 | CSc1nc(-c2cccc(NC(=O)CN3CCSCC3)c2)c2c(N)c(C(=O)NC(C)(C)C)sc2n1 [Example 3, tert-Butyl 5-amino-2-methylthio-4-(3-(2-(thiomorpholin-4-yl)-acetamido)-phenyl)-thieno[2,3-d]pyrimidine-6-carboxamide] | 8.03 nM | 19.8 | 1040 nM
4 | CSc1nc(-c2cccc(NC(=O)CN3CCCCC3)c2)c2c(N)c(C(=O)NC(C)(C)C)sc2n1 [Example 4, tert-Butyl 5-amino-2-methylthio-4-(3-(2-(piperidin-1-yl)-acetamido)-phenyl)-thieno[2,3-d]pyrimidine-6-carboxamide] | 6.63 nM | – | 201 nM
5 | CSc1nc(-c2cccc(NC(=O)CN3CCCC3)c2)c2c(N)c(C(=O)NC(C)(C)C)sc2n1 [Example 5, tert-Butyl 5-amino-2-methylthio-4-(3-(2-(pyrrolidin-1-yl)-acetamido)-phenyl)-thieno[2,3-d]pyrimidine-6-carboxamide] | 6.68 nM | – | 480 nM
6 | CSc1nc(-c2cccc(NC(=O)CN3CCNCC3)c2)c2c(N)c(C(=O)NC(C)(C)C)sc2n1 [Example 6, tert-Butyl 5-amino-2-methylthio-4-(3-(2-(piperazin-1-yl)-acetamido)-phenyl)-thieno[2,3-d]pyrimidine-6-carboxamide] | 3.17 nM | – | 150 nM
